| melting point | SMILES |
| --- | --- |
| 130 to 132 °C | Cc1cc(SCc2ccc3cn(-c4ccc(C(F)(F)F)cc4)nc3c2)ccc1CCC(=O)O [Example 20, 3-{2-Methyl-4-[2-(4-trifluoromethylphenyl)-2H-indazol-6-ylmethylsulfanyl]phenyl}propionic Acid] |
| 240 to 242 °C | O=C(O)Cc1csc2cc(OCc3ccc4cn(-c5ccc(C(F)(F)F)cc5)nc4c3)ccc12 [Example 25, {6-[2-(4-Trifluoromethylphenyl)-2H-indazol-6-ylmethoxy]benzo[b]thiophen-3-yl}acetic Acid] |
| 82 to 85 °C | Cc1cc(OC(C)c2cccc3c2cnn3-c2ccc(C(F)(F)F)cc2)ccc1OC(C)(C)C(=O)O (racemic) [Example 82, (+/−)-2-Methyl-2-(2-methyl-4-{1-[1-(4-trifluoromethylphenyl)-1H-indazol-4-yl]ethoxy}phenoxy)propionic Acid] |
| 100 to 104 °C | Cc1cc(OCc2cccc3c2cnn3-c2ccc(C(F)(F)F)cc2)ccc1OC(C)(C)C(=O)O [Example 77, 2-Methyl-2-{2-methyl-4-[1-(4-trifluoromethylphenyl)-1H-indazol-4-ylmethoxy]phenoxy}propionic Acid] |
| 159 to 161 °C | CCc1cc(SCc2cccc3cn(-c4ccc(C(F)(F)F)cc4)nc23)ccc1OCC(=O)O [Example 3, 2-Ethyl-4-[2-(4-trifluoromethylphenyl)-2H-indazol-7-ylmethylsulfanyl]phenoxyacetic Acid] |
| 164 to 166 °C | Cc1cc(OCc2ccc3nn(-c4ccc(C(F)(F)F)cc4)cc3c2)ccc1OC(C)(C)C(=O)O [Example 61, 2-Methyl-2-{2-methyl-4-[2-(4-trifluoromethylphenyl)-2H-indazol-5-ylmethoxy]phenoxy}propionic Acid] |
| 65 to 67 °C | CCc1cc(SC(C)c2cccc3cn(-c4ccc(C(F)(F)F)cc4)nc23)ccc1OCC(=O)O (racemic) [Example 10, (+/−)-2-Ethyl-4-{1-[2-(4-trifluoromethylphenyl)-2H-indazol-7-yl]ethylsulfanyl}phenoxyacetic Acid] |
| 61 to 63 °C | CCc1cc(OC(C)c2cccc3cn(-c4ccc(C(F)(F)F)cc4)nc23)ccc1CCC(=O)O (racemic) [Example 13] |
| 124 to 126 °C | Cc1cc(OCc2cccc3cnn(-c4ccc(C(F)(F)F)cc4)c23)ccc1OC(C)(C)C(=O)O [Example 96, 2-Methyl-2-{2-methyl-4-[1-(4-trifluoromethylphenyl)-1H-indazol-7-ylmethoxy]phenoxy}propionic Acid] |
| 199 to 201 °C | CC(C)(Oc1ccc(OCc2ccc3cn(-c4ccc(C(F)(F)F)cc4)nc3c2)cc1)C(=O)O [Example 52, 2-Methyl-2-{4-[2-(4-trifluoromethylphenyl)-2H-indazol-6-ylmethoxy]phenoxy}propionic Acid] |
| 135 to 137 °C | Cc1cc(SCc2cccc3cn(-c4ccc(C(F)(F)F)cc4)nc23)ccc1OC(C)(C)C(=O)O [Example 35, 2-Methyl-2-{2-methyl-4-[2-(4-trifluoromethylphenyl)-2H-indazol-7-ylmethylsulfanyl]phenoxy}propionic Acid] |
| 86 to 88 °C | CC(Oc1ccc(OC(C)(C)C(=O)O)cc1)c1cccc2nn(-c3ccc(C(F)(F)F)cc3)cc12 (racemic) [Example 75, (+/−)-2-Methyl-2-(4-{1-[2-(4-trifluoromethylphenyl)-2H-indazol-4-yl]ethoxy}phenoxy)propionic Acid] |
| 79 to 81 °C | Cc1cc(SCc2cccc3cn(-c4ccc(C(F)(F)F)cc4)nc23)ccc1OCC(=O)O [Example 1, 2-Methyl-4-[2-(4-trifluoromethylphenyl)-2H-indazol-7-ylmethylsulfanyl]phenoxyacetic Acid] |
| 76 to 78 °C | CC(Sc1ccc2c(CC(=O)O)csc2c1)c1cccc2cn(-c3ccc(C(F)(F)F)cc3)nc12 (racemic) [Example 11, (+/−)-6-{1-[2-(4-Trifluoromethylphenyl)-2H-indazol-7-yl]ethylsulfanyl}benzo[b]thiophen-3-ylacetic Acid] |
| 129 to 131 °C | Cc1cc(OC(C)c2ccc3nn(-c4ccc(C(F)(F)F)cc4)cc3c2)ccc1OC(C)(C)C(=O)O (racemic) [Example 66, (+/−)-2-Methyl-2-(2-methyl-4-{1-[2-(4-trifluoromethylphenyl)-2H-indazol-5-yl]ethoxy}phenoxy)propionic Acid] |
| 165 to 167 °C | Cc1cc(OCc2cccc3cn(-c4ccc(C(F)(F)F)cc4)nc23)ccc1OC(C)(C)C(=O)O [Example 37, 2-Methyl-2-{2-methyl-4-[2-(4-trifluoromethylphenyl)-2H-indazol-7-ylmethoxy]phenoxy}propionic Acid] |
| 141 to 143 °C | Cc1cc(SCCc2cccc3cn(-c4ccc(C(F)(F)F)cc4)nc23)ccc1OC(C)(C)C(=O)O [Example 49, 2-Methyl-2-(2-methyl-4-{2-[2-(4-trifluoromethylphenyl)-2H-indazol-7-yl]ethylsulfanyl}phenoxy)propionic Acid] |
| 130 to 132 °C | CC(Sc1ccc(OC(C)(C)C(=O)O)cc1)c1ccc2cn(-c3ccc(C(F)(F)F)cc3)nc2c1 (racemic) [Example 59, (+/−)-2-Methyl-2-(4-{1-[2-(4-trifluoromethylphenyl)-2H-indazol-6-yl]ethylsulfanyl}phenoxy)propionic Acid] |
| 139 to 141 °C | Cc1cc(OC(C)c2cccc3cn(-c4ccc(C(F)(F)F)cc4)nc23)ccc1OC(C)(C)C(=O)O (racemic) [Example 40, (+/−)-2-Methyl-2-(2-methyl-4-{1-[2-(4-trifluoromethylphenyl)-2H-indazol-7-yl]ethoxy}phenoxy)propionic Acid] |
| 140 to 142 °C | Cc1cc(SC(C)c2cccc3cn(-c4ccc(C(F)(F)F)cc4)nc23)ccc1OC(C)(C)C(=O)O (racemic) [Example 41, (+/−)-2-Methyl-2-(2-methyl-4-{1-[2-(4-trifluoromethylphenyl)-2H-indazol-7-yl]ethylsulfanyl}phenoxy)propionic Acid] |
| 153 to 155 °C | CC(Oc1ccc(SC(C)(C)C(=O)O)cc1)c1ccc2nn(-c3ccc(C(F)(F)F)cc3)cc2c1 (racemic) [Example 67, (+/−)-2-Methyl-2-(4-{1-[2-(4-trifluoromethylphenyl)-2H-indazol-5-yl]ethoxy}phenylsulfanyl)propionic Acid] |
| 154 to 158 °C | Cc1cc(SCc2cccc3cnn(-c4ccc(C(F)(F)F)cc4)c23)ccc1OC(C)(C)C(=O)O [Example 98, 2-Methyl-2-{2-methyl-4-[1-(4-trifluoromethylphenyl)-1H-indazol-7-ylmethylsulfanyl]phenoxy}propionic Acid] |
| 70 to 72 °C | Cc1cc(SC(C)c2ccc3nn(-c4ccc(C(F)(F)F)cc4)cc3c2)ccc1OC(C)(C)C(=O)O (racemic) [Example 69, (+/−)-2-Methyl-2-(2-methyl-4-{1-[2-(4-trifluoromethylphenyl)-2H-indazol-5-yl]ethylsulfanyl}phenoxy)propionic Acid] |
| 205 to 210 °C | Cc1cc(SC(CCC(F)(F)F)c2cccc3c2cnn3-c2ccc(C(F)(F)F)cc2)ccc1OC(C)(C)C(=O)O (racemic) [Example 88, (+/−)-2-Methyl-2-(2-methyl-4-{4,4,4-trifluoro-1-[1-(4-trifluoromethylphenyl)-1H-indazol-4-yl]butylsulfanyl}phenoxy)propionic Acid] |
| 65 to 70 °C | CCc1cc(SCc2cccc3nn(-c4ccc(C(F)(F)F)cc4)cc23)ccc1OCC(=O)O [Example 27, 2-Ethyl-4-[2-(4-trifluoromethylphenyl)-2H-indazol-4-ylmethylsufanyl]phenoxyacetic Acid] |

| SMILES | melting point |
| --- | --- |
| CC(C)(Sc1ccc(OC(CCC(F)(F)F)c2cccc3c2cnn3-c2ccc(C(F)(F)F)cc2)cc1)C(=O)O (racemic) [Example 89, (+/−)-2-Methyl-2-(4-{4,4,4-trifluoro-1-[1-(4-trifluoromethylphenyl)-1H-indazol-4-yl]butoxy}phenylsulfanyl)propionic Acid] | > 260 °C |
| CC(C)(Oc1ccc(OC(CCC(F)(F)F)c2cccc3c2cnn3-c2ccc(C(F)(F)F)cc2)cc1)C(=O)O (racemic) [Example 90, (+/−)-2-Methyl-2-(4-{4,4,4-trifluoro-1-[1-(4-trifluoromethylphenyl)-1H-indazol-4-yl]butoxy}phenoxy)propionic Acid] | 175 to 180 °C |

Source: US7544707B2, “Bicyclic derivatives as PPAR modulators” (Eli Lilly and Company, priority 2003, dated 2009)
